Broadly, the LD50 is the dose at which mortality reaches 50%. Low readings indicate greater toxicity, high ones lower toxicity. As a reminder, the inhibition is the drop in the measured response relative to a control, in per cent.

Here are results for four compounds from patent US5250546A, “Amino-alcohol derivatives and processes for their preparation” (Nippon Chemiphar Co., Ltd., priority 1984, dated 1993).

Data set [1] in a line: Acute toxicity, up-and-down method. The following applies: mouse, in vivo; iv (caudal vein), ddN male mice. How it is done: Using ddN male mice, the acute toxicity level of each test compound was determined in accordance with an up-and-down method. Some of the test compounds used were dissolved in physiological saline and administered through the caudal vein.
For data set [2], the system named is anemic decerebrate rigidity (Wistar male rats). Nature of the data set: Effects on anemic decerebrate rigidity (EMG of M. triceps brachii). It counts as in vivo. The following applies: Rattus norvegicus, iv, 10 min; 3 mg/kg through the femoral vein; 10 minutes after administration; read-out: Suppression rate (rigidity, EMG pulse area).
Procedure: An anemic decerebrate rigidity sample was prepared principally in accordance with the procedure of Fukuda et al. [Japan. […] Wistar male rats (body weight: 270 to 350 g) were held on their backs and incised at their cervices under etherization. After the trachea and common carotid arteries were exposed, the trachea was cannulated and the bilateral common carotid arteries and esophagus were then double-ligated and cut. Thereafter, its occipital bone was exposed through which a circular hole was bored to double-ligate the centrally extending basilar artery. As each rat started coming out of anesthetization, its front limbs became rigid. Measurement was conducted by recording electromyographic (EMG) response from the muscle of the forelimb (M. triceps brachii) of the rat in the rigid state. The EMG pulses were converted to accumulated values every 10 seconds and recorded as a histogram on a recorder.
The effect of each test compound on the rigidity was evaluated in terms of the suppression rate. This rate was calculated first by determining the area of a decreased EMG pulse part on the histogram upon passage of 10 minutes after administration of a physiological saline solution of each test compound (3 mg/kg) through the femoral vein and then in accordance with the following equation.
A: EMG pulse area when no test compound was administered (control).
Data set [3] concerns glutamic acid at neuromuscular junctions of crayfish (opener muscles of the first walking legs). Nature of the data set: Blocking effects against glutamic acid at neuromuscular junctions of crayfish (L-glutamic acid-induced depolarization). The class given is cell-based. The following applies: 5 min; suppression rate of depolarization by L-glutamic acid (10^-4 M); 5-minute pretreatment with test compound 2×10^-4 M.
Source text: The opener muscles of the first walking legs of crayfish were used as experimental materials. The neuromuscular sample was held in a bath in which a physiological solution [composition (mM): NaCl (195), CaCl2 (18), KCl (5.4), tris-maleate buffer (pH 7.5; 10), glucose (11)] for use with the crayfish was perfused at room temperature and at a constant flow rate. A glass micro-electrode filled with a 3M-KCl solution was inserted in a central part of the muscle fiber to intracellularly record changes in the potential of the muscular cell membrane.
The blocking effect of each test compound against glutamic acid was evaluated in terms of the suppression rate to depolarization which was induced by bath-applying L-glutamic acid (10^-4 M) in a 5-minute pretreatment with a solution of the test compound (2×10^-4 M).

`CC(C)CC[C@H](NCCCN1CCCC1)[C@H](O)c1ccccc1.Cl.Cl` (racemic) [Compound 35, (1RS,2SR)-5-methyl-1-phenyl-2-(3-pyrrolidinopropylamino)hexan-1-ol dihydrochloride] came in with an LD50 in data set [1] of 26.7 mg/kg. For the same compound, the inhibition in vivo at 3 mg/kg in data set [2] was determined as 21.6%. In addition, the inhibition at 200 µM in data set [3] is 100%.

In turn, `CC(C)CC[C@H](NCCN1CCCCC1)[C@H](O)c1ccccc1.Cl.Cl` (racemic) [Compound 41, (1RS,2SR)-5-methyl-1-phenyl-2-(2-piperidinoethylamino)hexan-1-ol dihydrochloride] came in with an LD50 in data set [1] of 29.5 mg/kg. Also, the inhibition in vivo at 3 mg/kg in data set [2] is 23.5%. For the same compound, in data set [3], the inhibition at 200 µM was determined as 94%.

Compound `CC(C)CC[C@H](NCCN1CCCC1)[C@H](O)c1ccccc1.Cl.Cl` (racemic) [Compound 43, (1RS,2SR)-5-methyl-1-phenyl-2-(2-pyrrolidinoethylamino)hexan-1-ol dihydrochloride] came in with an LD50 in data set [1] of 31.9 mg/kg. Further, the inhibition in vivo at 3 mg/kg in data set [2] was 16.1%. Also, in data set [3], the inhibition at 200 µM was 95%.

In data set [1], `CC(C)CC[C@H](NCCCN1CCCCCC1)[C@H](O)c1ccccc1.Cl.Cl` (racemic) [Compound 45, (1RS,2SR)-5-methyl-2-[3-(perhydroazepin-1-yl)propylamino]-1-phenylhexan-1-ol dihydrochloride] had an LD50 of 12.8 mg/kg. In addition, the inhibition in vivo at 3 mg/kg in data set [2] stood at 90.5%. In addition, in data set [3], the inhibition at 200 µM was 100%.
